The record followed here is PubChem BioAssay (NCI).

Where “and” joins values, the source holds several entries; their conditions need not be identical. Identical values can stand only once.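 48-hour exposure; five concentrations; linearly interpolated endpoints. GI50: concentration for 50% inhibition of growth. At the TGI there is no net growth.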 Where a SMILES comes first, the peptide text is derived from it. [ ]: non-standard residue; d: D form. Orn = NCCC[CH](N)C(=O)O Some results are limits rather than exact numbers.

What all share (assay): NCI tumour cell line growth inhibition, 48 h
Assay [1] has as its system SNB-75 CNS.
Assay [2] relates to SNB-19 CNS.
For assay [3], the system named is DU-145 prostate.
Assay [4] concerns ACHN renal.
Assay [5] concerns UO-31 renal.
Assay [6] relates to NCI-H522 lung.
In assay [7] the test system is SN12C renal.
The subject of assay [8] is OVCAR-8 ovarian.

For `CC(C)CC1NC(=O)C(CCCN)NC(=O)C(C(C)C)NC(=O)C2CCCN2C(=O)C(Cc2ccccc2)NC(=O)C(CC(C)C)NC(=O)C(CCCN)NC(=O)C(C(C)C)NC(=O)C2CCCN2C(=O)C(Cc2ccccc2)NC1=O` (stereo unspecified) (cyclo(FPV[Orn]LFPV[Orn]L); configuration not given here), the GI50 in assay [1] was 0.0103 µM; in assay [2] it was under 0.00325 µM; in assay [3], 0.0184 µM and 0.0529 µM; in assay [4], 0.0961 µM and 0.0816 µM; in assay [5], 0.599 µM and 1.64 µM; in assay [6], 0.00767 µM. The GI50 in assay [7] was 0.0111 µM and 0.0288 µM; in assay [8], 0.0113 µM and 0.0252 µM. The TGI in assay [1] is 0.149 µM and 0.0637 µM; in assay [2], 0.486 µM and 1.38 µM; in assay [3], 1.45 µM and 1.97 µM; in assay [4], 3.25 µM and 2.21 µM; in assay [5], 3.61 µM and 6.37 µM; in assay [6], 0.0376 µM and 0.0958 µM. The TGI in assay [7] is 0.419 µM and 1.13 µM; in assay [8] it was 0.591 µM and 1.32 µM.

With `N=c1c2c(=O)n3c(nc2nc2sc4ccc(Cl)cc4n12)-c1ccccc1Sc1ccccc1-3`, the GI50 in assay [1] was 2.45 µM; in assay [2], 4.31 µM; in assay [3] it was 4.31 µM; in assay [4], 2.61 µM; in assay [5] it was 2.29 µM; in assay [6], 1.76 µM. The GI50 in assay [7] was 2.94 µM; in assay [8], 2.95 µM. For the same compound, the TGI in assay [1] was determined as 9.66 µM; in assay [2], 20.4 µM; in assay [3], 19.7 µM; in assay [4], 16.9 µM; in assay [5], 9.97 µM; in assay [6], 11.4 µM. The TGI in assay [7] came out at 14 µM; in assay [8] it was 11.8 µM.

For `COc1ccc(C2SC(C)C(=O)N2NC(=O)C(O)c2ccccc2)cc1` (stereo unspecified), the GI50 was 60.3 µM in assay [1]; over 100 µM in assay [2]; over 100 µM in assay [3]; over 100 µM in assay [4]; over 100 µM in assay [5]; over 100 µM in assay [6]. For the same compound, the GI50 in assay [7] and in assay [8] was over 100 µM throughout. Further, the TGI in assay [1], in assay [2], in assay [3], in assay [4], in assay [5] and in assay [6] was over 100 µM in each case. Further, the TGI in assay [7] and in assay [8] was over 100 µM each time.

For `CNC(=S)N/N=C(/C)CCC/C(C)=N/NC(=S)NC`, the TGI in assay [1], in assay [2], in assay [3], in assay [4], in assay [5] and in assay [6] was over 100 µM in each case. The TGI in assay [7] and in assay [8] was over 100 µM in each case.

Take `N=C(N)c1ccc(-c2ccc(-c3ccco3)o2)cc1F`: the GI50 was 1.66 µM in assay [1]; 2.48 µM in assay [2]; 3.27 µM in assay [3]; 1.84 µM in assay [4]; 1.43 µM in assay [5]; 2.31 µM in assay [6]. The GI50 in assay [7] is 2.01 µM; in assay [8], 2.31 µM. Also, the TGI stood at 7.23 µM in assay [1]; 13.4 µM in assay [2]; 11.5 µM in assay [3]; 3.81 µM in assay [4]; 3.14 µM in assay [5]; 6 µM in assay [6]. Besides, the TGI in assay [7] and in assay [8] was 6.53 µM throughout.

As to `CC1=C(C(=O)Nc2ccc(Cl)c(Cl)c2)C(c2cccc(O)c2)NC(=S)N1` (stereo unspecified), the GI50 in assay [1] is 11.8 µM; in assay [2], 11.4 µM; in assay [3] it was 7.28 µM; in assay [4] it was 9.23 µM; in assay [5] it was 9.48 µM; in assay [6], 12 µM. Besides, the GI50 was 8.66 µM in assay [7] and 15.9 µM in assay [8]. For the same compound, the TGI in assay [1] was 47.8 µM; in assay [2], 30.3 µM; in assay [3], 14.5 µM; in assay [4], 19.7 µM; in assay [5], 19.1 µM; in assay [6], 25.2 µM. Further, the TGI in assay [7] stood at 20.1 µM; in assay [8] it was 28.1 µM.

Take `COC(=O)/C(Br)=C/c1c[nH]c2ccc(Br)cc12`: the GI50 in assay [1] was 12.2 µM; in assay [2], 16.7 µM; in assay [3], 13.2 µM; in assay [4], 11.8 µM; in assay [5], 6.36 µM; in assay [6], 10.2 µM. Besides, the GI50 in assay [7] was 18.4 µM; in assay [8], 18.2 µM. The TGI was found to be 33 µM in assay [1]; 45.7 µM in assay [2]; 25.9 µM in assay [3]; 43.2 µM in assay [4]; 30.1 µM in assay [5]; 32.1 µM in assay [6]. Further, the results for the TGI in assay [7] and in assay [8] were 43.3 µM and 34.3 µM, respectively.

Consider `Cc1ccc(S(=O)(=O)C2=C3C(=C(c4ccccc4)c4ccccc43)CN(S(=O)(=O)c3ccc(C)cc3)C2)cc1`, for which the GI50 in assay [1] was 2.92 µM; in assay [2], 12.9 µM; in assay [3], 11.8 µM; in assay [4] it was 4.52 µM; in assay [5] it was 1.95 µM; in assay [6], 2.41 µM. The GI50 is 3.04 µM in assay [7] and 2.65 µM in assay [8]. In addition, the TGI in assay [1] was 31.6 µM; in assay [2], 55.7 µM; in assay [3] it was over 100 µM; in assay [4] it was 19.3 µM; in assay [5] it was 18.2 µM; in assay [6], 6.35 µM. Further, the TGI in assay [7] came to 20.1 µM; in assay [8], 38.1 µM.

Turning to `Cc1ccc(S(=O)(=O)N2C/C(=C\c3cc(F)cc(F)c3)C(=O)/C(=C/c3cc(F)cc(F)c3)C2)cc1`, the GI50 in assay [1] was 1.91 µM; in assay [2], 0.29 µM; in assay [3], 0.787 µM; in assay [4], 0.232 µM; in assay [5] it was 0.481 µM; in assay [6], 0.26 µM. The GI50 in assay [7] was 0.272 µM; in assay [8] it was 0.301 µM. Besides, the TGI in assay [1] is 5.99 µM; in assay [2] it was 1.1 µM; in assay [3] it was 2.39 µM; in assay [4] it was 0.573 µM; in assay [5], 1.08 µM; in assay [6], 0.721 µM. The TGI in assay [7] stood at 0.861 µM; in assay [8], 1.77 µM.
